Like-named read-outs stand apart in the source and are kept apart here.
Experiments:
[1] = test system: picryl chloride-induced type IV allergy; test: Inhibiting effect on a picryl chloride-induced type IV allergy (1-aryluracil derivatives); assay type: in vivo, male ICR strain mice; conditions: Mus musculus, po, read-out: Percent Inhibition; for inhibition in vivo at 100 mg/kg: 100 mg/kg orally twice (just after induction and 16 hours after)
Protocol: (§1) The abdomen of 6-weeks old male ICR strain mice was shaven and 0.1 ml of a 7% picryl chloride solution in acetone was applied to the epithelium of the abdomen for immunization. After one week, 5 μl of a 1% picryl chloride solution in olive oil was applied to both sides of the left auricula to induce an allergy reaction. A given amount of a test substance was suspended in a 0.5% CMC-Na solution and the resulting suspension was administered orally to each mouse twice, i.e., just after the induction and 16 hours after. The thickness of the left auricula was measured both before the induction and 24 hours after.
(§2) The difference between the thickness of the left auricula before the induction and the value measured 24 hours after was calculated as the increase in thickness. Using a reference group to which only a 0.5% CMC-Na solution was administered orally, a reference value for the increase in thickness was obtained. The percent inhibition was determined as 100% when the increase in thickness was zero and as 0% when the increase in thickness was equal to the reference value. On the basis of these criteria, the percent inhibition of each test substance was calculated at varying doses.

[2] = test system: passive cutaneous anaphylaxis (PCA) reaction; test: Inhibiting effect on a 48 hour PCA reaction (test method for compound prepared in Example 1); assay type: in vivo, male Wistar strain rats; conditions: dye leakage
Protocol: (§3) Eight-weeks old male Wistar strain rats were immunized by subcutaneously injecting 0.05 ml of 50-fold diluted DNP-Ascaris antiserum (titer=1:64) at four positions on the dorsum. Forty-eight hours after the immunization, 1 ml of a 0.5% Evans blue solution containing 1 mg of DNP-Ascaris antigen was administered into a tail vein to induce a PCA reaction. Thirty minutes after the induction, the rats were bled to death and blue circular parts appearing at the immunized positions were excised. The dye was extracted from the blue circular parts with ethyl acetate and the amount of the dye leakage was determined. A test substance was suspended in a 0.5% CMC-Na solution and administered orally to each rat 1 hour before the induction.
(§4) Using a reference group to which only a 0.5% CMC-Na solution was administered orally, a reference value for the amount of dye leakage was obtained. The percent inhibition was determined as 100% when the amount of dye leakage was zero and as 0% when the amount of dye leakage was equal to the reference value. On the basis of these criteria, the percent inhibition of each test substance was calculated at varying doses.

[3] = Toxicity Test (Experimental Example 1, 1-aryluracil derivatives); assay type: in vivo, male SD rats; conditions: 1,000 mg/kg orally once a day for 2 consecutive weeks
Protocol: (§5) A test substance was suspended in a 0.5% CMC-Na solution and administered orally to 6-weeks old male SD rats once a day at a dose of 1,000 mg/kg for 2 consecutive weeks. The weight of each rat was measured both before the administration and every day during the administration. A given amount of blood was collected on the day after the end of the administration period and examined. Collected urine was also examined. In addition, organs were checked for any aberrations by autopsy.

[4] = test system: passive cutaneous anaphylaxis (PCA) reaction; test: Inhibiting effect on a 48 hour PCA reaction (test method for compound prepared in Example 22); assay type: in vivo, male Wistar strain rats; conditions: 100 mg/kg orally 30 minutes before the induction; dye leakage
Protocol: as §3, with “0.1” for “0.05”, “700-fold” for “50-fold”, “(titer=1:1024)” for “(titer=1:64)”, “two” for “four”, “pedal” for “tail”, “at a dose of 100 mg/kg 30 minutes” for “1 hour”
as §4

[5] = Toxicity Test (Experimental Example 2, 3-arylpurine derivatives); assay type: in vivo, male SD rats; conditions: 1,000 mg/kg orally once a day for 2 consecutive weeks
Protocol: as §5

[6] = test system: picryl chloride-induced type IV allergy; test: Inhibiting effect on a picryl chloride-induced type IV allergy (3-arylpurine derivatives); assay type: in vivo, male ICR strain mice; conditions: left auricula thickness at 24 hours
Protocol: as §1, §2

[7] = 10 mg/kg orally twice (just after induction and 16 hours after), left auricula thickness at 24 hours
[8] = left auricula thickness at 24 hours
[9] = 10 mg/kg orally twice (just after induction and 16 hours after)
[10] = 100 mg/kg orally twice (just after induction and 16 hours after)

For `Cn1c(=O)c(NC(=O)c2cc(C(C)(C)C)c(O)c(C(C)(C)C)c2)c(N)n(-c2ccccc2)c1=O` [Example 1, 6-Amino-5-(3,5-di-tert-butyl-4-hydroxyphenyl)carboxyamido-3-methyl-1-phenyluracil], the inhibition in vivo at 10 mg/kg [1, 7] was 54%, the “Percent Inhibition” value ([2]; 3 mg/kg orally 1 hour before the induction) was 33% and the “Percent Inhibition” value ([2]; 30 mg/kg orally 1 hour before the induction) was 49%.
Work on `Cn1c(=O)c(NC(=O)c2cc(C(C)(C)C)c(O)c(C(C)(C)C)c2)c(N)n(-c2ccc(F)cc2)c1=O` [Example 2, 6-Amino-5-(3,5-di-tert-butyl-4-hydroxyphenyl)carboxyamido-1-(4-fluorophenyl)-3-methyluracil] yielded an inhibition in vivo at 3 mg/kg ([1]; 3 mg/kg orally twice (just after induction and 16 hours after), left auricula thickness at 24 hours) of 38%.
With `Cc1ccc(-n2c(N)c(NC(=O)c3cc(C(C)(C)C)c(O)c(C(C)(C)C)c3)c(=O)n(C)c2=O)cc1` [Example 3, 6-Amino-5-(3,5-di-tert-butyl-4-hydroxyphenyl)carboxyamido-3-methyl-1-(4-methylphenyl)uracil] the inhibition in vivo at 10 mg/kg [1, 7] was 33%.
With `COc1ccc(-n2c(N)c(NC(=O)c3cc(C(C)(C)C)c(O)c(C(C)(C)C)c3)c(=O)n(C)c2=O)cc1` [Example 4, 6-Amino-5-(3,5-di-tert-butyl-4-hydroxyphenyl)carboxyamido-1-(4-methoxyphenyl)-3-methyluracil] the inhibition in vivo at 10 mg/kg [1, 7] was 35%.
For `CC(=O)Oc1cc(OC(C)=O)cc(C(=O)Nc2c(N)n(-c3ccccc3)c(=O)n(C)c2=O)c1` [Example 7, 6-Amino-5-(3,5-diacetoxyphenyl)carboxyamido-3-methyl-1-phenyluracil], the inhibition in vivo at 10 mg/kg [1, 7] was 65%, the autopsy [3] was “no abnormality was observed” and the blood examination [3] was “no abnormality was observed”. For the same compound, the “death during the administration period” value [3] was “no rat died”, the urine examination [3] was “no abnormality was observed” and the weight change [3] was “no abnormality was observed”.
In the case of `CC(=O)Oc1cc(OC(C)=O)cc(C(=O)Nc2c(N)n(-c3ccc(F)cc3)c(=O)n(C)c2=O)c1` [Example 8, 6-Amino-5-(3,5-diacetoxyphenyl)carboxyamido-1-(4-fluorophenyl)-3-methyluracil], the inhibition in vivo at 10 mg/kg [1, 7] is reported as 43%.
For `CCCn1c(=O)c(NC(=O)c2cc(OC(C)=O)cc(OC(C)=O)c2)c(N)n(-c2ccccc2)c1=O` [Example 11, 6-Amino-5-(3,5-diacetoxyphenyl)carboxyamido-1-phenyl-3-propyluracil], the inhibition in vivo at 100 mg/kg [1, 8] was 30%.
Work on `Cn1c(=O)c(NC(=O)c2cc(O)cc(O)c2)c(N)n(-c2ccccc2)c1=O` [Example 14, 6-Amino-5-(3,5-dihydroxyphenyl)carboxyamido-3-methyl-1-phenyluracil] yielded an inhibition in vivo at 10 mg/kg [1, 7] of 45%.
For `CC(=O)Oc1cc(C(=O)Nc2c(N)n(-c3ccccc3)c(=O)n(C)c2=O)cc(OC(C)=O)c1OC(C)=O` [Example 22, 6-Amino-3-methyl-1-phenyl-5-(3,4,5-triacetoxyphenyl)carboxyamidouracil], the inhibition in vivo at 10 mg/kg [1, 7] was 48%, the inhibition in vivo at 100 mg/kg [1, 8] was 72% and the “Percent Inhibition” value [4] was 50%.
In the case of `CC(=O)Oc1ccc(C(=O)Nc2c(N)n(-c3ccccc3)c(=O)n(C)c2=O)cc1OC(C)=O` [Example 34, 6-Amino-5-(3,4-diacetoxyphenyl)carboxyamido-3-methyl-1-phenyluracil], the inhibition in vivo at 10 mg/kg [1, 7] is reported as 33% and the inhibition in vivo at 100 mg/kg [1, 8] is reported as 52%.
Work on `Cn1c(=O)c(NC(=O)c2cc(=O)cco2)c(N)n(-c2ccccc2)c1=O` [Example 51, 6-Amino-3-methyl-5-(4-oxo-4H-pyran-2-yl)carboxyamido-1-phenyluracil] yielded an inhibition in vivo at 10 mg/kg [1, 7] of 45%.
With `Cn1c(=O)c(NC(=O)c2ccc(=O)oc2)c(N)n(-c2ccccc2)c1=O` [Example 52, 6-Amino-3-methyl-5-(2-oxo-2H-pyran-5-yl)carboxyamido-1-phenyluracil] the inhibition in vivo at 10 mg/kg [1, 7] was 19% and the inhibition in vivo at 100 mg/kg [1, 8] was 39%.
With `COc1ccc(O)c(C(=O)Nc2c(N)n(-c3ccccc3)c(=O)n(C)c2=O)c1` [Example 53, 6-Amino-5-(2-hydroxy-5-methoxyphenyl)carboxyamido-3-methyl-1-phenyluracil] the inhibition in vivo at 10 mg/kg [1, 7] was 45%, the autopsy [3] was “no abnormality was observed” and the blood examination [3] was “no abnormality was observed”. The “death during the administration period” value [3] was “no rat died”, the urine examination [3] was “no abnormality was observed” and the weight change [3] was “no abnormality was observed”.
`COc1ccc(-n2c(N)c(NC(=O)c3cc(OC)ccc3OC(C)=O)c(=O)n(C)c2=O)cc1` [Example 55, 5-(2-Acetoxy-5-methoxyphenyl)carboxyamido-6-amino-1-(4-methoxyphenyl)-3-methyluracil] showed an inhibition in vivo at 100 mg/kg [1, 8] of 35%.
Work on `CC1CCC(C(=O)Nc2c(N)n(-c3ccccc3)c(=O)n(C)c2=O)CC1` (centres unmarked) [Example 60, 6-Amino-3-methyl-5-(4-methylcyclohexyl)carboxyamido-1-phenyluracil] yielded an inhibition in vivo at 10 mg/kg [1, 7] of 40%.
Work on `Cn1c(=O)c(NC(=O)C2(C)CCCCC2)c(N)n(-c2ccccc2)c1=O` [Example 61, 6-Amino-3-methyl-5-(1-methylcyclohexyl)carboxyamido-1-phenyluracil] yielded an inhibition in vivo at 100 mg/kg [1, 8] of 32%.
In the case of `Cn1c(=O)c2[nH]c(-c3cc(C(C)(C)C)c(O)c(C(C)(C)C)c3)nc2n(-c2ccccc2)c1=O` [Example 74, 8-(3,5-Di-tert-butyl-4-hydroxyphenyl)-1-methyl-3-phenylpurine-2,6-dione], the autopsy [5] is reported as “no abnormality was observed”, the blood examination [5] is reported as “no abnormality was observed” and the “death during the administration period” value [5] is reported as “no rat died”. For the same compound, the urine examination [5] was “no abnormality was observed”, the weight change [5] was “no abnormality was observed” and the “Percent Inhibition” value [6, 9] was 38%.
With `COc1ccc(-n2c(=O)n(C)c(=O)c3[nH]c(-c4cc(C(C)(C)C)c(O)c(C(C)(C)C)c4)nc32)cc1` [Example 75, 8-(3,5-Di-tert-butyl-4-hydroxyphenyl)-3-(4-methoxyphenyl)-1-methylpurine-2,6-dione] the “Percent Inhibition” value [6, 9] was 16% and the “Percent Inhibition” value [6, 10] was 34%.
For `Cn1c(=O)c2[nH]c(-c3ccc(O)c(O)c3)nc2n(-c2ccccc2)c1=O` [Example 78, 8-(3,4-Dihydroxyphenyl)-1-methyl-3-phenylpurine-2,6-dione], the “Percent Inhibition” value [6, 9] was 35%.
For `CC(=O)Oc1cc(-c2nc3c([nH]2)c(=O)n(C)c(=O)n3-c2ccccc2)cc(OC(C)=O)c1OC(C)=O` [Example 80, 1-Methyl-3-phenyl-8-(3,4,5-triacetoxyphenyl)purine-2,6-dione], the “Percent Inhibition” value [6, 9] was 37% and the “Percent Inhibition” value [6, 10] was 53%.
With `C[C@]12C=CC(=O)C=C1CC[C@@H]1[C@@H]2[C@@H](O)C[C@@]2(C)[C@H]1CC[C@]2(O)C(=O)CO` [Prednisolone, prednisolone, reference compound] the inhibition in vivo at 10 mg/kg ([1]; 24 h) was 77% and the “Percent Inhibition” value [6, 9] was 67%.
With `COc1ccc(/C=C/C(=O)Nc2ccccc2C(=O)O)cc1OC` [Tranilast, tranilast, reference compound] the “Percent Inhibition” value ([2]; 100 mg/kg orally 1 hour before the induction) was 66% and the “Percent Inhibition” value [4] was 35%.

Source: patent US5661153A, “1-arylpyrimidine derivatives and pharmaceutical use thereof” (Japan Energy Corporation, priority 1994, dated 1997)
